Results: patent EP2963029A1, “Cyclic derivatives of epoxyisoprostanoids as therapeutic agents” (ETH Zurich, priority 2014, dated 2016)
Where two headings read alike, the source gives them in different places.

Columns and labels:
IL-12 [1] = settings: bone-marrow derived dendritic cells, Egger et al., Angew. Chem. Int. Ed. 2013, cited from earlier work
naïve CD4 T cells = assay: Co-culture of compound-pretreated splenic dendritic cells with naive CD4 T cells; Th1/Th2 polarization by intracellular FACS staining; assay type: cell-based, C57BL/6 mice
Nrf2 target genes = assay: qPCR expression of Nrf2 target genes in pretreated, R837-stimulated bone marrow-derived dendritic cells; assay type: cell-based, mouse
Source text: (§1) • Figure 1: Treatment with cyclo-EC (9) licenses dendritic cells to polarize niave CD4 T cells towards the Th2 subset. Naïve transgenic splenic CD4 T cells were co-cultured together with splenic dendritic cells that had been pre-treated either with cyclo-EC (9) (cEC) or the respective solvent control. CD4 T cells were then stimulated with the cognate antigen for 4 days. […] Shown is the percentage of IL-4 producing Th2 and IFNγ producing Th1 cells after treatment with cEC or solvent DMSO. Differences between cEC and DMSO treatments are significant as indicated by (*) using unpaired, two-tailed t tests. […] Wild type bone marrow-derived dendritic cells were pretreated with cyclo-EC (9) (cEC) or solvent control for 75 minutes before stimulation with the TLR7 (toll-like receptor 7) ligand R837 (Syed, T. A., Exp.Opin.Pharmacother. 2001, 2, 877) for an additional 3 h. Cells were then lysed, mRNA was purified, reverse transcribed and expression of Nrf2 ([…]) target genes as well as the indicated chemokine genes was determined by qPCR. Expression levels were normalized to G6PDH (glucose 6-phosphate dehydrogenase) expression. […] Cytokines in the supernatant were quantified with ELISA. • Figure 4. […] Cytokines in the supernatant were quantified with ELISA. • Figure 5. […]

IL-12 [2] = assay: IL-12 secretion by bone marrow-derived dendritic cells stimulated with TLR7 agonist R837 (ELISA); assay type: cell-based, mouse; settings: BMDCs treated 60 minutes, then R837 for 18 h (Figures 3-5)
Source text: as §1, with “qPCR.” for “qPCR. Expression levels were normalized to G6PDH (glucose 6-phosphate dehydrogenase) expression.”
(§2) Bone marrow cells from tibia and femur were isolated ex vivo and differentiated in vitro into bone marrow derived dendritic cells (BMDC) by cultivation in the presence of 2 ng/ml carrier free recombinant mouse GM-CSF (BioLegend, 576308) in RPMI 1640 medium (GE Healthcare, E15-039) supplemented with L-glutamine (Lonza-Cambrex BioWhittaker, BE17-605E), HEPES Buffer (Lonza-Cambrex BioWhittaker, BE17-737E), peniciline/ streptomycine (Gibco Life Technologies 15140-122) and fetal bovine serum (Gibco Life Sciences 10270-106). […] Cells were then harvested, counted and seeded into 96-well flat bottom plates at 10^5 cells/well. […] Cytokine concentrations in supernatant were quantified by sandwich ELISA using the following antibody pairs: IL-6 (504502 and 504602) from BioLegend and IL-12 (14-7125-85 and 13-7123-85) from eBioscience. […] Optical density was measured using a Spectra MAX 190 device by Bucher biotec. […]

IL-6 [3] = assay: IL-6 secretion by bone marrow-derived dendritic cells stimulated with TLR7 agonist R837 (ELISA); assay type: cell-based, mouse; settings: BMDCs treated 60 minutes, then R837 for 18 h (Figures 3-5)
Source text: as §1, with “qPCR.” for “qPCR. Expression levels were normalized to G6PDH (glucose 6-phosphate dehydrogenase) expression.”
as §2

IL-6 [4] = settings: bone-marrow derived dendritic cells, Egger et al., Angew. Chem. Int. Ed. 2013, cited from earlier work
[5] = tested on: Pro-inflammatory chemokine genes: CCL1, 2, 3 and 4; assay: qPCR expression of pro-inflammatory chemokine genes in pretreated, R837-stimulated bone marrow-derived dendritic cells; assay type: cell-based, mouse; settings: pretreated 75 minutes, then R837 for 3 h; normalized to G6PDH (Figure 2)
Source text: as §1

Row | SMILES | secretion of pro-inflammatory cytokine IL-12 (IL-12 [1]) | secretion of pro-inflammatory cytokine IL-12 (IL-12 [1]; listed as 8) | polarization of naïve CD4 T cells towards the Th2 subset (naïve CD4 T cells; earlier experiments, splenic dendritic cells) | expression of downstream targets of Nrf2 (Nrf2 target genes; earlier experiments, quantitative PCR) | inhibition of IL-12 secretion (IL-12 [2]) | inhibition of IL-6 secretion (IL-6 [3]) | secretion of pro-inflammatory cytokine IL-6 (IL-6 [4]) | secretion of pro-inflammatory cytokine IL-6 (IL-6 [4]; listed as 8) | percentage of IFNγ producing Th1 cells (naïve CD4 T cells; dendritic cells treated with 500nM for 60 minutes, co-culture 4 days with 10 nM gp61, vs solvent DMSO, p = 0.0161 (Figure 1)) | percentage of IL-4 producing Th2 cells (naïve CD4 T cells; dendritic cells treated with 500nM for 60 minutes, co-culture 4 days with 10 nM gp61, vs solvent DMSO, p = 0.039 (Figure 1)) | expression of Nrf2 target genes (HO-1, NQO1) (Nrf2 target genes; pretreated 75 minutes, then R837 for 3 h, normalized to G6PDH (Figure 2)) | inhibition of IL-12 secretion (IL-12 [2]; listed as cEC) | pro-inflammatory chemokine expression (CCL1, 2, 3 and 4) [5] | inhibition of IL-6 secretion (IL-6 [3]; listed as cEC)
1 | CCCCC/C=C\C[C@H]1C=CC(=O)/C1=C/[C@H]1O[C@@H]1CCCC(=O)O [EC (8), 4-((2R,3R)-3-((E)-((S)-2-((Z)-Oct-2-en-1-yl)-5-oxocyclopent-3-en-1-ylidene)-methyl)oxiran-2-yl)butanoic acid] | more potent than EI (19) | reduced secretion | able to license splenic dendritic cells to polarize naïve CD4 T cells towards the Th2 subset | able to drive expression of downstream targets of Nrf2 | potent inhibitor of toll-like receptor 7 (TLR) mediated secretion of pro-inflammatory cytokines | potent inhibitor of toll-like receptor 7 (TLR) mediated secretion of pro-inflammatory cytokines | more potent than EI (19) | reduced secretion | – | – | – | – | – | –
2 | CCCCC/C=C\C[C@@H]1/C(=C\[C@H]2O[C@@H]2CCCC(=O)O)C(=O)C[C@H]1O [EI (19), 5,6-epoxyisoprostane E2] | reduced secretion | – | – | – | – | – | reduced secretion | – | – | – | – | – | – | –
3 | CCCCC/C=C\C[C@H]1C=CC(=O)/C1=C/[C@@H](O)[C@@H]1CCCC(=O)O1 [cyclo-EC (9), (S)-6-((R,E)-1-Hydroxy-2-((S)-2-((Z)-oct-2-en-1-yl)-5-oxocyclopent-3-en-1-liydene)-ethyl)tetrahydro-2H-pyran-2-one] | – | – | – | – | most potent inhibitor of IL-6 and IL-12 secretion | most potent inhibitor of IL-6 and IL-12 secretion | – | – | interferes with high dose antigen induced polarization towards the Th1 subset | licenses the dendritic cells to promote polarization of the Th2 subset | induces expression of Nrf2 target genes | attenuates secretion of pro-inflammatory cytokines at lower concentrations than EC | inhibits pro-inflammatory chemokine expression | attenuates secretion of pro-inflammatory cytokines at lower concentrations than EC
